# Test results from patent US8735436B2, “Polyunsaturated fatty acids for the treatment of diseases related to cardiovascular, metabolic and inflammatory disease areas” (Pronova Biopharma Norge AS, priority 2009, dated 2014).
# Experiments:
# Assay in all cases: PPAR activation in vitro, mammalian-one-hybrid (M1H) GAL4-PPAR-LBD luciferase reporter assay
# Type in all cases: cell-based
# [1] = target: T1, PPARα (Homo sapiens, UniProt Q07869); conditions: for PPARα Efficacy: HEK293 cells, efficacy of positive control (GW7647) set to 100%; for EC50: transiently transfected HEK293 cells, compound incubation 16-20 h, six concentrations in duplicate
# T1 construct: expressed in transfected cells; host or cells: HEK293
# T1 sequence (Q07869 239-466 limits assumed): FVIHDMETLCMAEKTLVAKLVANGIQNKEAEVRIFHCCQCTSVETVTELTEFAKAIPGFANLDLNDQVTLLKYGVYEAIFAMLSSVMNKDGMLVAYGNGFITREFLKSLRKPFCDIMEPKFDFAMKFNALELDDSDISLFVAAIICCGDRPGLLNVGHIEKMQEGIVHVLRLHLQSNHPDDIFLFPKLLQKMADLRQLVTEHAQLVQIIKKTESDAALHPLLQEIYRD
# Procedure: (§1) The assays were carried out in vitro using mammalian-one-hybrid assays (M1H) comprising GAL4-DNA binding domain-PPAR-LBD fusion constructs in conjunction with 5×GAL4-sites driven Photinus pyralis luciferase reporter constructs in transiently transfected HEK293 cells.
# (§2) The cells were transfected 4-6 h and grown overnight before compounds were added. Compound incubation was 16-20 h.
# (§3) Renilla reniformis luciferase, driven by a constitutive promoter, was included as internal control to improve experimental accuracy.
# (§4) The compounds (A-C) and a positive control were tested at six different concentrations in duplicate. The positive controls were GW7647 (PPARα), GW501516 (PPARδ) and rosiglitazone (PPARγ). The efficacy of the controls were set to 100%.
# [2] = target: T2, PPARδ (Homo sapiens, UniProt Q03181); conditions: for PPARδ Efficacy: HEK293 cells, efficacy of positive control (GW501516) set to 100%; for PPARδ EC50: transiently transfected HEK293 cells, compound incubation 16-20 h, six concentrations in duplicate
# T2 construct: expressed in transfected cells; host or cells: HEK293
# T2 sequence (Q03181 211-439 limits assumed): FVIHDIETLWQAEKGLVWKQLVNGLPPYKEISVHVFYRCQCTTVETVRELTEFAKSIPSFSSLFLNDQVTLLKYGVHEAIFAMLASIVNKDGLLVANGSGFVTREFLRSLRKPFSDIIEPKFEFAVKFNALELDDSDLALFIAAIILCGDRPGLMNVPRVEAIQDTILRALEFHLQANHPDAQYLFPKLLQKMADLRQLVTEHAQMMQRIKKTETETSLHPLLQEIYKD
# Procedure: as §1, §2, §3, §4
# [3] = target: T3, PPARγ (Homo sapiens, UniProt P37231); conditions: for PPARγ Efficacy: HEK293 cells, efficacy of positive control (rosiglitazone) set to 100%; for EC50: transiently transfected HEK293 cells, compound incubation 16-20 h, six concentrations in duplicate
# T3 construct: expressed in transfected cells; host or cells: HEK293
# T3 sequence (P37231 238-503 limits assumed): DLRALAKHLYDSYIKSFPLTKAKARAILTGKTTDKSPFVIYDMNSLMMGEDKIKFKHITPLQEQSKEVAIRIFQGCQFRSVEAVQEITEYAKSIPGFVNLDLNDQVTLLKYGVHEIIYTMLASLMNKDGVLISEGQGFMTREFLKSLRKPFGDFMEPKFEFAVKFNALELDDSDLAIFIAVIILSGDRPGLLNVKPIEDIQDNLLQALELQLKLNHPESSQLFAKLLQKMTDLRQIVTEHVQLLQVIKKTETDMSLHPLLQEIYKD
# Procedure: as §1, §2, §3, §4
Compound,PPARα Efficacy [1],EC50 [1],PPARδ Efficacy [2],PPARδ EC50 [2],PPARγ Efficacy [3],EC50 [3]
CC/C=C\C/C=C\C/C=C\C/C=C\C/C=C\CCCCOC(CC)C(=O)O (stereo not drawn) [A],82%,307 nM,inactive,inactive,22%,806 nM
CC/C=C\C/C=C\C/C=C\C/C=C\C/C=C\CCCCO[C@@H](CC)C(=O)O [B],86%,405 nM,inactive,inactive,27%,644 nM
CC/C=C\C/C=C\C/C=C\C/C=C\C/C=C\CCCCO[C@H](CC)C(=O)O [C],54%,167 nM,inactive,inactive,25%,515 nM
